Data as given in the supplement of paper PMC10307832.

How the values were obtained:
Assay in all cases: relative viability (nuclei count vs DMSO), 5 days (fraction); higher = more cells survive
[1] = compound: CC[C@@H](C)CNCC(=O)N1CCC2=C([C@@H]1COC3=CC=CC(=C3)C)C=CS2 [RU-SKI 43] + Cc1nc(NC(=O)N2CCC[C@H]2C(N)=O)sc1-c1ccnc(C(C)(C)C(F)(F)F)c1 [Alpelisib] (partner 2 µM)
How it was run: (§1)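 A single step with final 0.05% Triton X-100, 1% formaldehyde and 1 ug/ml Hoechst fixed the cells and stained nuclei 5 days after treatment. Lung cancer cell lines in 1536-well plates had been treated by pin tool the day after seeding with one drug alone or a fixed anchor-drug dose plus five library-drug doses (not always all listed) in √10 steps, and nuclei were counted on 4× images. Relative viability is the ratio of nuclei in treated wells to nuclei in vehicle wells, taken as the median of duplicate plates.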

[2] = compound: CCc1c2c(nc3ccc(OC(=O)N4CCC(N5CCCCC5)CC4)cc13)-c1cc3c(c(=O)n1C2)COC(=O)[C@]3(O)CC [Irinotecan] + O=C(CCCCCCC(=O)Nc1ccccc1)NO [Vorinostat] (partner 1 µM)
How it was run: as §1

[3] = compound: Cn1cc(-c2cnc3ccc4ccc(CS(=O)(=O)NCc5ccccn5)cc4c(=O)c3c2)cn1 [MK-8033] + Cc1nc(Nc2ncc(C(=O)Nc3c(C)cccc3Cl)s2)cc(N2CCN(CCO)CC2)n1 [Dasatinib] (partner 0.075 µM)
How it was run: as §1

[4] = compound: CCc1c2c(nc3ccc(OC(=O)N4CCC(N5CCCCC5)CC4)cc13)-c1cc3c(c(=O)n1C2)COC(=O)[C@]3(O)CC [Irinotecan] + CC(=O)Nc1cccc(-n2c(=O)n(C3CC3)c(=O)c3c(Nc4ccc(I)cc4F)n(C)c(=O)c(C)c32)c1 [Trametinib] (partner 0.02 µM)
How it was run: as §1

| Cell Line | relative viability ([1]; first compound 0.1 µM) | relative viability ([1]; first compound 0.3162 µM) | relative viability ([1]; first compound 1 µM) | relative viability ([1]; first compound 3.162 µM) | relative viability ([1]; first compound 10 µM) | relative viability ([2]; first compound 0.6325 µM) | relative viability ([2]; first compound 2 µM) | relative viability ([2]; first compound 6.325 µM) | relative viability ([2]; first compound 20 µM) | relative viability ([3]; first compound 0.02 µM) | relative viability ([3]; first compound 0.06325 µM) | relative viability ([3]; first compound 0.2 µM) | relative viability ([3]; first compound 0.6325 µM) | relative viability ([3]; first compound 2 µM) | relative viability ([4]; first compound 0.6325 µM) | relative viability ([4]; first compound 2 µM) | relative viability ([4]; first compound 6.325 µM) | relative viability ([4]; first compound 20 µM) |
| --- | --- | --- | --- | --- | --- | --- | --- | --- | --- | --- | --- | --- | --- | --- | --- | --- | --- | --- |
| NCI-H1299 | 1.18 | 1.14 | 1.03 | 1.08 | 1.15 | – | – | – | – | – | – | – | – | – | – | – | – | – |
| NCI-H1650 | – | – | – | – | – | 0.518 | 0.349 | 0.351 | 0.162 | 0.27 | 0.254 | 0.275 | 0.325 | 0.272 | 0.484 | 0.526 | 0.45 | 0.125 |
| NCI-H647 | 1.2 | 1.56 | 1.51 | 1.11 | 1.1 | 0.679 | 0.398 | 0.139 | 0.0969 | 0.164 | 0.164 | 0.188 | 0.197 | 0.173 | 0.447 | 0.414 | 0.151 | 0.0916 |
| NCI-H1944 | 0.888 | 0.815 | 0.843 | 0.872 | 0.786 | 0.386 | 0.36 | 0.223 | 0.166 | 0.205 | 0.201 | 0.221 | 0.202 | 0.234 | 0.291 | 0.204 | 0.177 | 0.178 |
| NCI-H23 | 0.648 | 0.796 | 0.81 | 0.697 | 0.628 | 0.467 | 0.451 | 0.234 | 0.199 | 0.844 | 0.827 | 0.64 | 0.928 | 0.587 | 0.35 | 0.289 | 0.187 | 0.191 |
| NCI-H1792 | 0.574 | 1.1 | 0.736 | 0.886 | 0.735 | – | – | – | – | 0.768 | 0.834 | 0.752 | 0.57 | 0.569 | 0.356 | 0.532 | 0.225 | 0.205 |
| HCC-78 | 0.349 | 0.325 | 0.378 | 0.436 | 0.29 | 0.56 | 0.322 | 0.291 | 0.288 | 0.55 | – | 0.335 | 0.355 | 0.491 | 0.882 | 0.716 | 0.31 | 0.262 |
| NCI-H358 | 0.795 | 0.894 | 0.781 | 0.634 | 0.858 | 0.455 | 0.246 | 0.167 | 0.135 | 0.15 | 0.149 | 0.198 | 0.163 | 0.175 | 0.106 | 0.131 | 0.125 | 0.071 |
| NCI-H520 | 0.968 | 1.01 | 1.09 | 0.918 | 0.793 | 0.442 | 0.394 | 0.278 | 0.162 | 0.193 | 0.187 | 0.211 | 0.221 | 0.168 | 0.52 | 0.397 | 0.264 | 0.172 |
| BEN | 1.04 | 1.13 | 1.07 | 1.06 | 1 | 0.544 | 0.726 | 0.473 | 0.545 | 0.343 | 0.289 | 0.318 | 0.326 | 0.307 | 1.2 | 0.769 | 0.503 | 0.556 |
| A-427 | 1.13 | 1.16 | 1.18 | – | 1.02 | 0.738 | 0.785 | 0.384 | 0.33 | 0.677 | 0.701 | 0.661 | 0.731 | 0.67 | 0.719 | 0.657 | 0.365 | 0.175 |
| EMC-BAC-2 | 0.769 | 0.752 | 0.762 | 0.733 | 0.893 | 0.224 | 0.297 | 0.283 | 0.225 | 0.324 | 0.325 | 0.327 | 0.33 | 0.339 | 0.867 | 0.766 | 0.474 | 0.201 |
| NCI-H1975 | 0.692 | 0.717 | 0.806 | 0.66 | 0.583 | 0.714 | 0.708 | 0.378 | 0.269 | 0.329 | 0.344 | 0.357 | – | 0.343 | 0.224 | 0.341 | 0.292 | 0.224 |
| NCI-H1755 | 0.97 | 1.21 | 1.04 | 1.05 | 0.916 | 0.606 | 0.7 | 0.448 | 0.385 | 0.41 | 0.382 | 0.415 | 0.421 | 0.443 | 0.733 | 0.456 | 0.405 | 0.469 |
| NCI-H1648 | – | – | – | – | – | 0.379 | 0.423 | 0.355 | 0.279 | – | – | – | – | – | 0.441 | 0.383 | 0.299 | 0.323 |
| NCI-H1703 | 0.329 | 0.31 | 0.338 | 0.339 | 0.239 | – | – | – | – | – | – | – | – | – | – | – | – | – |
| NCI-H1563 | 0.862 | 0.925 | 0.903 | 0.853 | 0.862 | – | – | – | – | 0.468 | 0.45 | 0.473 | 0.362 | 0.46 | – | – | – | – |
| NCI-H1623 | – | – | – | – | – | – | – | – | – | 0.608 | 0.504 | 0.642 | 0.516 | 0.57 | – | – | – | – |
| Calu-6 | 0.994 | 1.14 | 0.994 | 1.03 | 0.989 | – | – | – | – | – | – | – | – | – | – | – | – | – |
| ChaGo-K-1 | – | – | – | – | – | 0.443 | 0.326 | 0.268 | 0.243 | 0.603 | 0.588 | 0.527 | 0.66 | 0.641 | 0.296 | 0.24 | 0.21 | 0.221 |
| IA-LM | 1.02 | 0.795 | 0.902 | 0.91 | 0.694 | – | 0.619 | 0.251 | 0.0877 | – | – | – | – | – | – | – | – | – |
| NCI-H522 | – | – | – | – | – | 0.734 | 0.727 | 0.59 | 0.65 | 0.776 | 0.696 | 0.815 | 1.07 | 0.818 | 0.67 | 0.599 | 0.517 | 0.476 |
| SW 900 | – | – | – | – | – | – | 0.564 | 0.333 | 0.373 | 0.378 | 0.394 | 0.476 | 0.907 | 0.424 | – | 0.522 | 0.275 | 0.284 |
| A549 | 0.991 | 0.957 | 0.738 | 0.772 | 0.621 | – | – | – | – | – | – | – | – | – | – | – | – | – |
